Assay [1] concerns sorted colonic ILC3s. Nature of the assay: Flow analysis of intracellular signaling (AKT, p38, ERK, STAT3 phosphorylation) in sorted colonic ILC3s from WT mice. The class given is cell-based, mouse. The protocol:
For analysis of intracellular signaling in ILC3s (Ibiza et al., 2016), sorted colonic ILC3s were rested for 2 hours in RPMI at 37° C.
AKT and STAT3 inhibition. Sorted colonic ILC3s were rested for 2 hours in RPMI at 37° C. For analysis of STAT3 phosphorylation, cells were incubated with […] AKT inhibitor VIII (VIII, Sigma-Aldrich) (Ibiza et al., 2016) or vehicle as a control (DMSO) for 1h at 37° C. before stimulation with the Ffar2 agonist (10 μM/ml dissolved in water, pH 7.4). To determine Il22 expression levels, cells were incubated with 10 μM AKT inhibitor VIII, 10 μM STAT3 inhibitor VI (S3I, Sigma-Aldrich) (Ibiza et al., 2016) or vehicle during overnight stimulation with Ffar2 agonist at 37° C.

The test system of assay [2] is sorted colonic ILC3s. Nature of the assay: Il22 mRNA expression in sorted colonic ILC3s (qRT-PCR). The class given is cell-based, mouse. Particulars: for Il22 expression upon Ffar2 activation with the Ffar2 agonist: overnight with Ffar2 agonist, AKT inhibitor VIII 10 μM, STAT3 inhibitor 10 μM. The protocol: RNA isolation and real-time quantitative PCR (qRT-PCR). For analysis of sorted colonic immune cell populations including ILC subsets and colonic ILC3s, RNA was isolated using the RNeasy Micro Kit (Qiagen) or RNeasy Mini Kit (Qiagen) according to the manufacturer's protocol. For analysis of colonic epithelial cells or colon tissues, cells or tissues were homogenized directly into Qiazol (Qiagen), and RNA was isolated via chloroform extraction. The quantity and quality of RNA was determined using a NanoDrop (Thermo Scientific). […] Quantitative real-time PCR was carried out on cDNA with SYBR FAST Universal qPCR Master Mix (KAPA Biosystems). Reactions were run on a Stratagene Mx3005P machine (Agilent Technologies). The expression of individual genes was normalized to housekeeping gene β-actin expression on the base of the ΔΔCt algorithm. Some results are shown as a fold induction relative to expression levels in colonic epithelial cells as indicated. AKT and STAT3 inhibition.
On the technique in general: In qPCR the cycle at which signal appears reflects the starting amount.

Assay [3] relates to sorted colonic ILC3s. Briefly: In vitro BrdU incorporation in sorted colonic ILC3s. The class given is cell-based, mouse. Conditions: acetate 10 mM or propionate 10 mM with BrdU 10 μM overnight. (In general: Uptake of a labelled nucleoside into DNA is a usual measure of proliferation.)
The test system of assay [4] is colonic ILC3s. Nature of the assay: Colonic RORγt+ ILC3s in germ-free WT mice fed Ffar2 agonist or sodium acetate. The class given is in vivo, mouse. Conditions: Ffar2 agonist 700 μM or sodium acetate 150 mM in drinking water, 1-2 weeks. The protocol: GPR43 agonist. […] SCFA intervention. […] WT mice received sodium chloride (150 mM). […] Flow cytometry.
In assay [5] the test system is colonic ILC3s. Particulars: WT mice, drinking water 2 weeks; acetate 150 mM, propionate 150 mM, butyrate 100 mM; control sodium chloride.
Description: SCFA intervention. […] WT mice received sodium chloride (150 mM). […] Drinking water solutions were freshly prepared and changed every 5 days.
Isolation of colonic epithelial cells and immune cells. Colons were dissected and fat and blood vessels were removed. Colons were cut open longitudinally and washed with PBS to remove feces and debris, then incubated in PBS containing 5 mM EDTA, 0.145 mg/ml Dithiothreitol (Sigma-Aldrich), 3% FBS and 1% penicillin/streptomycin (P/S) for 15 min at 37° C. for 2 cycles. After being vortexed for 15s, the dissociated cells were collected as colonic epithelial cells. For the isolation of lamina propria immune cells, the remaining colonic tissues were washed twice in PBS, cut into 1 mm in length, and digested in RPMI 1640 containing 0.5 mg/ml collagenase D (Roche), 0.01 mg/ml DNase I (Roche), and 0.5 mg/ml Dispase (Stem Cell Technologies) for 30 min at 37° C. on a shaking platform. The digested tissues were passed through 70 μm strainers after being vigorously vortexed for 15s. Then, colonic immune cells were collected and resuspended in PBS with 1% fetal bovine serum and 1% penicillin-streptomycin solution (Corning) for flow cytometry analysis, FACSAria sorting or RNA extraction.
Flow cytometry. Single-cell suspensions were stained with a combination of fluorescently conjugated monoclonal antibodies. CD16/32 antibody (93; BioLegend) was used to block the non-specific binding to Fc receptors before surface staining. Cells were stained with Fixable yellow dead cell stain kit (Invitrogen) for the detection of live/dead cells before staining of the cell surface. All antibodies were purchased from BioLegend unless otherwise specified. For surface marker staining, antibodies to the following mouse proteins were used: CD45 (30-F11), CD90.2 (53-2.1), lineage markers (17A2/RB6-8C5/RA3-6B2/Ter-119/M1/70), CCR6 (29-21.17), NKp46 (29A1.4), CD11b (M1/70), CD11c (N418), Gr-1 (RB6-8C5), MHC class II (M5/114.15.2), NK1.1 (PK136), KLRG1 (2F1), CD3c (145-2C11), CD4 (RM4.5). […]
The target of a further assay is T1, Ffar2 (Homo sapiens, UniProt O15552).
T1 sequence (O15552 1-330): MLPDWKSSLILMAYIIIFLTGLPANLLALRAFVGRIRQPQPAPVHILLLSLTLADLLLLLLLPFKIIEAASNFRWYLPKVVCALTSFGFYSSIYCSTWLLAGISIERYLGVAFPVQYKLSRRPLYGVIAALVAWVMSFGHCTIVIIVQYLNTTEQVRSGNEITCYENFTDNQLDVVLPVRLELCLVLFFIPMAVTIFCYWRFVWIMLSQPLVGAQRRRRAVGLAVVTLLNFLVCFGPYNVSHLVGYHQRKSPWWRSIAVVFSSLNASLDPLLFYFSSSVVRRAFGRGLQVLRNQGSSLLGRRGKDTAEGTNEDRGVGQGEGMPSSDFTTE
Particulars: cited from earlier work; for agonism of Ffar2 among SCFAs: compared among acetate, propionate and butyrate.

Another assay deals with Peyer's patch ILC3s. Particulars: cited from earlier work.
A further assay has as its system C57BL/6 Rag2−/− mice. Briefly: T cell-transfer colitis model. Particulars: Ffar2 agonist or sodium propionate for 6 weeks. The class given is in vivo, mouse. The protocol: GPR43 agonist. […] SCFA intervention. […] WT mice received sodium chloride (150 mM). […] Histology. Colons were cleaned with PBS prior to fixation in 4% PFA and then processed by routine paraffin embedding, sectioning and H&E staining. Colitis scores were determined by a pathologist (J. N. G.), who was blinded to the experimental parameters. Each of the four histologic parameters was scored as absent (0), mild (1), moderate (2), or severe (3): mononuclear cell infiltration, polymorphonuclear cell infiltration, epithelial hyperplasia, and epithelial injury. The scores for the parameters were summed to generate the cumulative histologic colitis score as previously described^60, 61. For the DSS-induced model, cumulative histologic scores were also quantified as to the percentage involvement by the disease process: […] (3) 30-50%; (4) >50% and presented as histologic colitis scores^62 as follows: (cumulative score*involvement)+cumulative score. T cell-transfer colitis model. Splenic T cells (CD3^+CD4^+CD25^-CD45RB^hi) were sorted from C57BL/6J WT mice and injected i.p. into C57BL/6J Rag2^-/- mice (5×10^5 cells/mouse). […] Mice were monitored weekly for weight loss and morbidity for 6-8 weeks as per the protocol's experimental endpoint guidelines and sacrificed at the terminal time point of 6 weeks post injection of splenic […].

Setting [6] is: WT ILC3s, propionate 10 mM, 1 h.

Like-named read-outs stand apart in the source and are kept apart here. *1 amine or outer side, *2 acyl side, *3 side chain or, on linkers, in order; H or OH if unused. Where a SMILES comes first, the peptide text is derived from it. Bridges are numbered along the chain shown (N, C = ends). [ ]: non-standard residue; d: D form. X1 = CC(=O)NC(C(=O)OC(C(C)C)C(N[*:1])C(=O)[*:2])C(O)C(C)C; PhLac = O=C(O)[CH](O)Cc1ccccc1; NMeT = CN[CH](C(=O)O)[CH](C)O; NMeA = CN[CH](C)C(=O)O; NMeDha = C=C(NC)C(=O)O

As to `O=c1[nH]c2ccccc2n1C1CCN(Cc2ccc(-c3nc4cc5[nH]cnc5cc4nc3-c3ccccc3)cc2)CC1` [AKT inhibitor (VIII)], in the assay with sorted colonic ILC3s [1] (AKT inhibitor VIII 1 h before stimulation with Ffar2 agonist), the “STAT3 activation upon Ffar2 activation with the Ffar2 agonist” value is listed as “impaired”. Also, the “Il22 expression upon Ffar2 activation with the Ffar2 agonist” value (from here on “Il22 expression upon Ffar2 activation”) with sorted colonic ILC3s [2] (PTX 500 ng/mL, YM-254890 1 mM) was “decreased 11-22, but to a lesser extent”.

On to `Cc1ccc(S(=O)(=O)OCC(=O)Nc2ccc(C(=O)O)c(O)c2)cc1` [STAT3 inhibitor (S31)], for which the “Il22 expression upon Ffar2 activation” value is on record as “impaired” in the assay on sorted colonic ILC3s [2] (PTX 500 ng/mL, YM-254890 1 mM) and “decreased” in the assay on sorted colonic ILC3s [2] (PTX 500 ng/mL, YM-254890 1 mM, listed as STAT3 inhibitor).

Regarding `C=C1C(=O)NC(C)C(=O)N(C)C(C)C(=O)NC(C(OC(=O)C(NC(C)=O)C(O)C(C)C)C(C)C)C(=O)N(C)C(C(C)OC)C(=O)OC(C)C(NC(C)=O)C(=O)OC(Cc2ccccc2)C(=O)N1C` (stereo not drawn) [YM-254890] (Ac-T[PhLac][NMeDha]A[NMeA][X1][NMeT](Me); ester 1-C; configuration not given here), the “Il22 expression upon Ffar2 activation” value with sorted colonic ILC3s [2] (PTX 500 ng/mL, YM-254890 1 mM) is reported as “abolished”. Also, in the assay on sorted colonic ILC3s [2] (propionate 10 mM overnight, PTX 500 ng/mL, YM-254890 1 mM, ERK inhibitor 10 μM), the “Il22 expression upon activation with propionate” value is recorded as “decreased IL22 transcripts to a lesser extent”.

With `CC(=O)[O-].[Na+]` [sodium acetate], the “percentage of BrdU+ ILC3s” value with sorted colonic ILC3s [3] is reported as “increased”. The “colonic ILC3 numbers” value in the assay with colonic ILC3s [4] was “increased”. Besides, the “colonic ILC3 frequency and number” value with colonic ILC3s [5] is reported as “increased”. Further, at Ffar2, the “agonism of Ffar2 among SCFAs” value is on record as “far more potent activators of Ffar2”. In addition, in the assay on sorted colonic ILC3s [2], the “Il22 mRNA expression in sorted ILC3s cultured with ligand” value was “did not alter”.

`CCCC(=O)[O-].[Na+]` [sodium butyrate]: in the assay on colonic ILC3s [5], the “colonic ILC3 frequency and number” value was “did not change”. Further, in the assay on Peyer's patch ILC3s, the “effect on Peyer's patch ILC3s” value is “suppress”.

On to `CCC(=O)[O-].[Na+]` [sodium propionate], for which the “colitis (histologic colitis score)” value in the assay with C57BL/6 Rag2−/− mice was “ameliorated colitis similar to the effect of sodium propionate”. In the assay with sorted colonic ILC3s [3], the “percentage of BrdU+ ILC3s” value is recorded as “did not”. The “colonic ILC3 frequency and number” value in the assay on colonic ILC3s [5] is “increased”. Besides, the “phosphorylation of AKT, p38, ERK and STAT3” value in the assay on sorted colonic ILC3s [1] (WT ILC3s, propionate 10 mM, 30 min) is listed as “did not induce”. For the same compound, in the assay with sorted colonic ILC3s [1] (setting [6]), the “pSTAT3+ ILC3s” value is “did increase” and the “share of ILC3s that were pSTAT3+” value is recorded as 1%-1.5%. For the same compound, the “percentage of pERK+ ILC3s” value in the assay with sorted colonic ILC3s [1] (WT ILC3s, propionate 10 mM, 1 h compared with shorter time) is given as “comparable”. Also, the pERK level result in the assay on sorted colonic ILC3s [1] (WT ILC3s, propionate 10 mM, 1 h versus 30 min) is recorded as “did induce a higher pERK”. Also, at Ffar2, the “potency for Ffar2 compared with the synthetic Ffar2 agonist” value is given as “lower potency” and the “agonism of Ffar2 among SCFAs” value is recorded as “far more potent activators of Ffar2”. For the same compound, the “Il22 mRNA expression in sorted ILC3s cultured with ligand” value in the assay on sorted colonic ILC3s [2] (acetate 10 mM, propionate 10 mM or Ffar2 agonist 10 mM) is “to a lesser extent, propionate increased”.

The values are drawn from patent US20220008368A1, “METHODS AND COMPOSITIONS RELATED TO TARGETING FFAR2 AND ILC3 POPULATIONS FOR THE TREATMENT OF A GASTROINTESTINAL DISEASE” (PRESIDENT AND FELLOWS OF HARVARD COLLEGE, priority 2018, published 2022).
